This is an account of results in paper PMC3817851, “Enzyme activity effects of N-terminal His-tag attached to catalytic sub-unit of phosphoinositide-3-kinase” (Bioscience Reports, 2013).

Assay type in all cases: biochemical
Assay [1] deals with T1, p110γ (PI 3-Kγ) (Homo sapiens, UniProt P48736).
T1 construct: gene PIK3CG; catalytic subunit only, N-His6-rTEV tag (tag removed by rTEV); baculovirus/Sf9
The experiment in a line: HTRF kinetics, […] ATP. The following applies: PI([…])P2 co-substrate, His-tag removed.

Assay [2] deals with T2, p110β (PI 3-Kβ, p110β/p85α) (Homo sapiens, UniProt P42338).
T2 construct: gene PIK3CB; full-length p110β with N-His6-rTEV tag (tag removed by rTEV) co-expressed with full-length p85α; baculovirus/Sf9; IMAC, MonoQ; heterodimer; with Phosphatidylinositol 3-kinase regulatory subunit alpha
T2 sequence (P42338 whole entry): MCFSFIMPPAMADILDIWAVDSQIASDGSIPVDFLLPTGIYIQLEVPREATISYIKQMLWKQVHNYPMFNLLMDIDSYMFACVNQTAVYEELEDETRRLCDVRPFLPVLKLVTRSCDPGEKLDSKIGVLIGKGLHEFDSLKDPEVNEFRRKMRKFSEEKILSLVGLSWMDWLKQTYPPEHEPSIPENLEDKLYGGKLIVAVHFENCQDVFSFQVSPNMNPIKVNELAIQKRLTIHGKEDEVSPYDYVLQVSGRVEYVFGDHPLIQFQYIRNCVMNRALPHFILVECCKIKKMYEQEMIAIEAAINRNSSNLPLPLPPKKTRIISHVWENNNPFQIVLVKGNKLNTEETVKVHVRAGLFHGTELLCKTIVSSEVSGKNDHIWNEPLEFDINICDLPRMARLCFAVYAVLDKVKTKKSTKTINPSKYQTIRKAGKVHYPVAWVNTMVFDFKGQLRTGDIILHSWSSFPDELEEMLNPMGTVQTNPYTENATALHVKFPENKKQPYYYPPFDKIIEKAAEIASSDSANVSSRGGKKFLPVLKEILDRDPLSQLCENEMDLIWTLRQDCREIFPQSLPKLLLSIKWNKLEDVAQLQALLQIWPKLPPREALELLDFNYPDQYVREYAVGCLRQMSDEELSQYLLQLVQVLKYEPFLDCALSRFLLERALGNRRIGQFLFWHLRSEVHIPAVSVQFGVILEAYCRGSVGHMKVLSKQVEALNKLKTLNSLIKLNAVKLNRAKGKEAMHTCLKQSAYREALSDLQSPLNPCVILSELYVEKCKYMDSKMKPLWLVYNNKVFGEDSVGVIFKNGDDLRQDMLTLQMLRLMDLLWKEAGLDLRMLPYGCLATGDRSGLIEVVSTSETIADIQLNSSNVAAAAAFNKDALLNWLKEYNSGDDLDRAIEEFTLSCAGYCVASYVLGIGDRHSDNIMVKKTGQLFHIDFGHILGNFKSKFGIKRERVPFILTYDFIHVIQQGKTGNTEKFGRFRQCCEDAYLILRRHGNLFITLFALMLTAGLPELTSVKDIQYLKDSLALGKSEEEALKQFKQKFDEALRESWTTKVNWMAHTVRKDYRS
T2 sequence (P27986 2-724 partner): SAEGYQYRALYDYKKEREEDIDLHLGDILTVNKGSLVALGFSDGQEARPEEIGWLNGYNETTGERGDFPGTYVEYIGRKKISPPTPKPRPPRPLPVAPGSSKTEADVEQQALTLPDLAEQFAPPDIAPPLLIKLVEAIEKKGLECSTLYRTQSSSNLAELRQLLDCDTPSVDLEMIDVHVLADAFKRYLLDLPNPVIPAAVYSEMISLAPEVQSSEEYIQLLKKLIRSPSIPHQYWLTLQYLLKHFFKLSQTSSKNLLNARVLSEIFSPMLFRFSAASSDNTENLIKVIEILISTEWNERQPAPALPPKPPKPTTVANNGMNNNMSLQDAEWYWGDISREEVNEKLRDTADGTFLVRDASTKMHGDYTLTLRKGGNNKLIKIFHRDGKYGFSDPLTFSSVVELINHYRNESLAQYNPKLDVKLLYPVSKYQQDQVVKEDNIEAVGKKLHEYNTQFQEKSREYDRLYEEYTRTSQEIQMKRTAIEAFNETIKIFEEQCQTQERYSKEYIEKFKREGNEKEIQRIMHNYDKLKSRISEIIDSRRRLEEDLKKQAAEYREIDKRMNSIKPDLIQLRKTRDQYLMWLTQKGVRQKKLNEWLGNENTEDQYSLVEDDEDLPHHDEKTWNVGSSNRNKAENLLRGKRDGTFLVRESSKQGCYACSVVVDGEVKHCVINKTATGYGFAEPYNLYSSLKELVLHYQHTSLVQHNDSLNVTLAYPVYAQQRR
The experiment in a line: HTRF kinetics, […] ATP. The following applies: PI([…])P2 co-substrate, His-tag removed. (In general: Time-resolved FRET reads energy transfer from a long-lived donor to a nearby acceptor.)

Assay [3] addresses T3, p110δ (PI 3-Kδ, p110δ/p85α) (Homo sapiens, UniProt O00329).
T3 construct: gene PIK3CD; full-length p110δ with N-His6-rTEV tag (tag removed by rTEV) co-expressed with full-length p85α; baculovirus/Sf9; IMAC, MonoQ; heterodimer; with Phosphatidylinositol 3-kinase regulatory subunit alpha
The experiment in a line: HTRF kinetics, […] ATP. Particulars: PI([…])P2 co-substrate, His-tag removed.

Assay [4] has as its target T4, p110α (PI 3-Kα, p110α/p85α) (Homo sapiens, UniProt P42336).
T4 construct: gene PIK3CA; full-length p110α with N-His6-rTEV tag (tag removed by rTEV) co-expressed with full-length p85α; baculovirus/Sf9; IMAC, MonoQ; heterodimer; with Phosphatidylinositol 3-kinase regulatory subunit alpha
The experiment in a line: HTRF kinetics, […] ATP. The following applies: PI([…])P2 co-substrate, His-tag removed.

Assay [5] deals with T2, p110β (PI 3-Kβ, p110β/p85α). The experiment in a line: HTRF lipid kinase assay. The following applies: […] ATP, PI([…])P2 substrate, His-tag removed.
In assay [6] the target is T1, p110γ (PI 3-Kγ). The experiment in a line: HTRF lipid kinase assay.

T1 sequence (P48736 whole entry): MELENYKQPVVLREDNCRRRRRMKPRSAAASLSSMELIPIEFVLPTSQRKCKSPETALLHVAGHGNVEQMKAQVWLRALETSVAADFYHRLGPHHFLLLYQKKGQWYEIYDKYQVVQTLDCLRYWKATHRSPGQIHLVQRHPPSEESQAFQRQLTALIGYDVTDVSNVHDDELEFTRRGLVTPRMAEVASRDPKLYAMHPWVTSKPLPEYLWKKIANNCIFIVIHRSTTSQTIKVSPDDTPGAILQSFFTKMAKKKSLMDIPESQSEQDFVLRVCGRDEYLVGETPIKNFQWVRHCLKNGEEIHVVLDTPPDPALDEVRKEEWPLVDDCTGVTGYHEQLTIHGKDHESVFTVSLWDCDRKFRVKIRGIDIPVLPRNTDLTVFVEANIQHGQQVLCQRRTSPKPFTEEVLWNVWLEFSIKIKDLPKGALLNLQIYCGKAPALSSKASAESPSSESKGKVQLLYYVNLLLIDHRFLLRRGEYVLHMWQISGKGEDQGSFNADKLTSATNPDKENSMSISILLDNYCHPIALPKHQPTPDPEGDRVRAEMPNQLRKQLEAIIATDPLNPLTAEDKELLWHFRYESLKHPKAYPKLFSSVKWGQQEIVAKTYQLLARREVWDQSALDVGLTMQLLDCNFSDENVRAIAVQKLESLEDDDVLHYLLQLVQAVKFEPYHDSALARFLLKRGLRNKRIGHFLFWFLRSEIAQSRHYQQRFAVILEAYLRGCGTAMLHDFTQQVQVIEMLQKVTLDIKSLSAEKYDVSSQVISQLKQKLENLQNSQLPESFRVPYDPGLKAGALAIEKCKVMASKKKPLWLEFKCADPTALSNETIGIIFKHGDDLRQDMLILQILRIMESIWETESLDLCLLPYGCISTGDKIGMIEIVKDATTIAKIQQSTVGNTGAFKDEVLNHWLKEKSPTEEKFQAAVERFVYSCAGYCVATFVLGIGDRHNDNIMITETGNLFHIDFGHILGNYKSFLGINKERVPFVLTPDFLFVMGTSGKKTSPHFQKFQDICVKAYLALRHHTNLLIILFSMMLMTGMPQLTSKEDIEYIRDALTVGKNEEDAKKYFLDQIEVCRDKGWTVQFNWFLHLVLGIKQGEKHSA
T3 sequence (O00329 whole entry): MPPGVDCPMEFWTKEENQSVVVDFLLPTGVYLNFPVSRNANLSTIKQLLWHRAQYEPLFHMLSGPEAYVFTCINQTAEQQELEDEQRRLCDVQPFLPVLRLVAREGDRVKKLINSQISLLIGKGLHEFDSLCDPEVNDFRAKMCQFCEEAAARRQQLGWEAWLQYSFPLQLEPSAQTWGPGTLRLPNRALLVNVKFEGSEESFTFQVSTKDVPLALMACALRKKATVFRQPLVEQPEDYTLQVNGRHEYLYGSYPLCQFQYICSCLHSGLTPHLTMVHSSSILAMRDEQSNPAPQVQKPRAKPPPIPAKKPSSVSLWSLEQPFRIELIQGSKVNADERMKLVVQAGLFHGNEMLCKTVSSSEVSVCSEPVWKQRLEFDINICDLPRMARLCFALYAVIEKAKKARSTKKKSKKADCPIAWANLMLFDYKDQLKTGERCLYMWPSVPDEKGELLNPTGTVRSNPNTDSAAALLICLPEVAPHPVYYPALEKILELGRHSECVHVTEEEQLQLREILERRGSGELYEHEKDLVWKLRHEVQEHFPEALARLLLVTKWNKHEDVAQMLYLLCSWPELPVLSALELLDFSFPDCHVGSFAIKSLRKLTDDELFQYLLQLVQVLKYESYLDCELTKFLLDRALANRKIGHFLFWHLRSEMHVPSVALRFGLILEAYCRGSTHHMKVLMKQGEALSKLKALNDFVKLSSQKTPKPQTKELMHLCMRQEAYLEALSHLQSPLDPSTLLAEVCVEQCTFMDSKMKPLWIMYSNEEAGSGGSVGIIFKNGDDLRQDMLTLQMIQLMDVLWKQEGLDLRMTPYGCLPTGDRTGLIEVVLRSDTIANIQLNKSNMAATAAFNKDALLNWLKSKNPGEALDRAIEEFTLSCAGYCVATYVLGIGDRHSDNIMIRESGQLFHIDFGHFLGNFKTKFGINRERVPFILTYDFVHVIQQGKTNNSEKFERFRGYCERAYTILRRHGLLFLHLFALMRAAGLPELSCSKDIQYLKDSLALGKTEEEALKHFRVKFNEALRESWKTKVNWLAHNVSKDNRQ
T3 sequence (P27986 2-724 partner): as the sequence (P27986 2-724 partner) above
T4 sequence (P42336 whole entry): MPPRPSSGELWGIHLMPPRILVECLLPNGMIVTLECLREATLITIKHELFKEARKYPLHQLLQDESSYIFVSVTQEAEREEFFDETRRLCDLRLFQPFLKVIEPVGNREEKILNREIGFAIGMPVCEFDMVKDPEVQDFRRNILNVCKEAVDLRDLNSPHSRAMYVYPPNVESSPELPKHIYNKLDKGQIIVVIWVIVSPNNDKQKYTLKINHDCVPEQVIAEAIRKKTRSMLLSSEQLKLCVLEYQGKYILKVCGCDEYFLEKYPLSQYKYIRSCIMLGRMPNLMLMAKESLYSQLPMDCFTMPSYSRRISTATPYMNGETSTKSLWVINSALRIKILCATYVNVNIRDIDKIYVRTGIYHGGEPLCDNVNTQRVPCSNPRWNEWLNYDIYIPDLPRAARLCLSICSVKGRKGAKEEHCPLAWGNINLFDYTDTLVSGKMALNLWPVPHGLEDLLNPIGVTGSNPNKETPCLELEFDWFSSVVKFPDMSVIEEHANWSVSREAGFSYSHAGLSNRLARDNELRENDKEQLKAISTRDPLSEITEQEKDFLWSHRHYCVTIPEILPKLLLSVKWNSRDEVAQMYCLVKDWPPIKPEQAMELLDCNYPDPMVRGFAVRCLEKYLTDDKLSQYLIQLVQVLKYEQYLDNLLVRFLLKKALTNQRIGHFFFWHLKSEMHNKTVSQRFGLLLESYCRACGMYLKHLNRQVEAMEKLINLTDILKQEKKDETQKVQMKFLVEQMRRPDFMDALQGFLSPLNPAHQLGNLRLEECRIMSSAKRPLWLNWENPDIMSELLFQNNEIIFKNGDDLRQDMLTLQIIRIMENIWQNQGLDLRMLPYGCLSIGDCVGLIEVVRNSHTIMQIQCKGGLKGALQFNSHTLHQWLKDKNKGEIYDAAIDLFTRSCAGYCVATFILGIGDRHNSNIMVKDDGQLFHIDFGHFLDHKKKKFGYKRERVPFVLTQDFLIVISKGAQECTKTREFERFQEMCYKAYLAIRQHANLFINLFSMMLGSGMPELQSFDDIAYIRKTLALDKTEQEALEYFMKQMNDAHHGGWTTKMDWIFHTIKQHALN
T4 sequence (P27986 2-724 partner): as the sequence (P27986 2-724 partner) above

For `Nc1ncnc2c1ncn2[C@@H]1O[C@H](COP(=O)(O)OP(=O)(O)OP(=O)(O)O)[C@@H](O)[C@H]1O` [ATP], the Km entry in assay [1], in assay [2], in assay [3] and in assay [4] was “(B) Km for ATP in μM” each time.

With `Cc1cc([C@H](C)Nc2ccccc2)c2oc(N3CCOCC3)cc(=O)c2c1` [PIK108], the IC50 in assay [5] came to 0.014 µM.

`Cc1ccc([N+](=O)[O-])cc1S(=O)(=O)N(C)/N=C/c1cnc2ccc(Br)cn12` [PIK-75] came in with an IC50 in assay [6] of 0.026 µM.

By IC50 is commonly meant the midpoint of a concentration-inhibition curve.
